In brackets after ≈: the same amount, converted by molar mass. Activity calls are given as the source filed them. The calls are words filed in the database; no cut-off is given here.
Legend:
Escherichia coli [1] = test: Antibacterial activity against Escherichia coli KB366 expressing IMP-1 assessed as inhibition of bacterial growth at 30 ug in absence of meropenem incubated overnight by paper disk method; assay type: functional, organism-based; settings: dose 30.0 µg
Escherichia coli [2] = test: Antibacterial activity against Escherichia coli KB366 expressing IMP-1 assessed as inhibition of bacterial growth at 0.3 ug in presence of meropenem incubated overnight by paper disk method; assay type: functional; settings: read-out: IZ
Pseudomonas aeruginosa [3] = test: Antibacterial activity against Pseudomonas aeruginosa KB367 expressing IMP-1 assessed as inhibition of bacterial growth at 0.3 ug in presence of meropenem incubated overnight by paper disk method; assay type: functional, organism-based; settings: dose 0.3 µg
Escherichia coli [4] = test: Antibacterial activity against Escherichia coli KB366 expressing IMP-1 assessed as inhibition of bacterial growth at 0.3 ug in absence of meropenem incubated overnight by paper disk method; assay type: functional, organism-based; settings: dose 0.3 µg
Escherichia coli [5] = test: Antibacterial activity against Escherichia coli KB366 expressing IMP-1 assessed as inhibition of bacterial growth at 100 ug in presence of meropenem incubated overnight by paper disk method; assay type: functional; settings: read-out: IZ
Pseudomonas aeruginosa [6] = test: Antibacterial activity against Pseudomonas aeruginosa KB367 expressing IMP-1 assessed as inhibition of bacterial growth at 10 ug in presence of meropenem incubated overnight by paper disk method; assay type: functional; settings: read-out: IZ
Escherichia coli [7] = test: Antibacterial activity against Escherichia coli KB366 expressing IMP-1 assessed as inhibition of bacterial growth at 10 ug in absence of meropenem incubated overnight by paper disk method; assay type: functional, organism-based; settings: dose 10.0 µg
Pseudomonas aeruginosa [8] = test: Antibacterial activity against Pseudomonas aeruginosa KB367 expressing IMP-1 assessed as inhibition of bacterial growth at 0.3 ug in absence of meropenem incubated overnight by paper disk method; assay type: functional, organism-based; settings: dose 0.3 µg
Escherichia coli [9] = test: Antibacterial activity against Escherichia coli KB366 expressing IMP-1 assessed as inhibition of bacterial growth at 0.1 ug in presence of meropenem incubated overnight by paper disk method; assay type: functional; settings: read-out: IZ
Pseudomonas aeruginosa [10] = test: Antibacterial activity against Pseudomonas aeruginosa KB367 expressing IMP-1 assessed as inhibition of bacterial growth at 0.01 ug in absence of meropenem incubated overnight by paper disk method; assay type: functional, organism-based; settings: dose 0.01 µg
Escherichia coli [11] = test: Antibacterial activity against Escherichia coli KB366 expressing IMP-1 assessed as inhibition of bacterial growth at 0.03 ug in presence of meropenem incubated overnight by paper disk method; assay type: functional; settings: read-out: IZ
Escherichia coli [12] = test: Antibacterial activity against Escherichia coli KB366 expressing IMP-1 assessed as inhibition of bacterial growth at 0.1 ug in absence of meropenem incubated overnight by paper disk method; assay type: functional, organism-based; settings: dose 0.1 µg
Pseudomonas aeruginosa [13] = test: Antibacterial activity against Pseudomonas aeruginosa KB367 expressing IMP-1 assessed as inhibition of bacterial growth at 30 ug in presence of meropenem incubated overnight by paper disk method; assay type: functional; settings: read-out: IZ
Pseudomonas aeruginosa [14] = test: Antibacterial activity against Pseudomonas aeruginosa KB367 expressing IMP-1 assessed as inhibition of bacterial growth at 0.1 ug in absence of meropenem incubated overnight by paper disk method; assay type: functional, organism-based; settings: dose 0.1 µg
Escherichia coli [15] = test: Antibacterial activity against Escherichia coli KB366 expressing IMP-1 assessed as inhibition of bacterial growth at 3 ug in presence of meropenem incubated overnight by paper disk method; assay type: functional; settings: read-out: IZ
[16] = Inhibition of bacterial Metallo-beta-lactamase IMP-1 using nitrocefin as substrate pre-incubated for 15 mins followed by substrate addition by microplate reader; design: species or system Bacteria
Pseudomonas aeruginosa [17] = test: Antibacterial activity against Pseudomonas aeruginosa KB367 expressing IMP-1 assessed as inhibition of bacterial growth at 0.1 ug in presence of meropenem incubated overnight by paper disk method; assay type: functional, organism-based; settings: dose 0.1 µg
Pseudomonas aeruginosa [18] = test: Antibacterial activity against Pseudomonas aeruginosa KB367 expressing IMP-1 assessed as inhibition of bacterial growth at 0.03 ug in presence of meropenem incubated overnight by paper disk method; assay type: functional, organism-based; settings: dose 0.03 µg
Pseudomonas aeruginosa [19] = test: Antibacterial activity against Pseudomonas aeruginosa KB367 expressing IMP-1 assessed as inhibition of bacterial growth at 3 ug in presence of meropenem incubated overnight by paper disk method; assay type: functional; settings: read-out: IZ
Pseudomonas aeruginosa [20] = test: Antibacterial activity against Pseudomonas aeruginosa KB367 expressing IMP-1 assessed as inhibition of bacterial growth at 30 ug in absence of meropenem incubated overnight by paper disk method; assay type: functional, organism-based; settings: dose 30.0 µg
Escherichia coli [21] = test: Antibacterial activity against Escherichia coli KB366 expressing IMP-1 assessed as inhibition of bacterial growth at 1 ug in presence of meropenem incubated overnight by paper disk method; assay type: functional; settings: read-out: IZ
Pseudomonas aeruginosa [22] = test: Antibacterial activity against Pseudomonas aeruginosa KB367 expressing IMP-1 assessed as inhibition of bacterial growth at 100 ug in absence of meropenem incubated overnight by paper disk method; assay type: functional, organism-based; settings: dose 100.0 µg
Escherichia coli [23] = test: Antibacterial activity against Escherichia coli KB366 expressing IMP-1 assessed as inhibition of bacterial growth at 0.03 ug in absence of meropenem incubated overnight by paper disk method; assay type: functional, organism-based; settings: dose 0.03 µg
Escherichia coli [24] = test: Antibacterial activity against Escherichia coli KB366 expressing IMP-1 assessed as inhibition of bacterial growth at 1 ug in absence of meropenem incubated overnight by paper disk method; assay type: functional, organism-based; settings: dose 1.0 µg
Escherichia coli [25] = test: Antibacterial activity against Escherichia coli KB366 expressing IMP-1 assessed as inhibition of bacterial growth at 100 ug in absence of meropenem incubated overnight by paper disk method; assay type: functional, organism-based; settings: dose 100.0 µg
Escherichia coli [26] = test: Antibacterial activity against Escherichia coli KB366 expressing IMP-1 assessed as inhibition of bacterial growth at 10 ug in presence of meropenem incubated overnight by paper disk method; assay type: functional; settings: read-out: IZ
Pseudomonas aeruginosa [27] = test: Antibacterial activity against Pseudomonas aeruginosa KB367 expressing IMP-1 assessed as inhibition of bacterial growth at 1 ug in presence of meropenem incubated overnight by paper disk method; assay type: functional; settings: for zone of inhibition at 1 µg/disc: read-out: IZ
Pseudomonas aeruginosa [28] = test: Antibacterial activity against Pseudomonas aeruginosa KB367 expressing IMP-1 assessed as inhibition of bacterial growth at 10 ug in absence of meropenem incubated overnight by paper disk method; assay type: functional, organism-based; settings: dose 10.0 µg
Pseudomonas aeruginosa [29] = test: Antibacterial activity against Pseudomonas aeruginosa KB367 expressing IMP-1 assessed as inhibition of bacterial growth at 3 ug in absence of meropenem incubated overnight by paper disk method; assay type: functional, organism-based; settings: dose 3.0 µg
Pseudomonas aeruginosa [30] = test: Antibacterial activity against Pseudomonas aeruginosa KB367 expressing IMP-1 assessed as inhibition of bacterial growth at 100 ug in presence of meropenem incubated overnight by paper disk method; assay type: functional; settings: read-out: IZ
Escherichia coli [31] = test: Antibacterial activity against Escherichia coli KB366 expressing IMP-1 assessed as inhibition of bacterial growth at 3 ug in absence of meropenem incubated overnight by paper disk method; assay type: functional, organism-based; settings: dose 3.0 µg
Escherichia coli [32] = test: Antibacterial activity against Escherichia coli KB366 expressing IMP-1 assessed as inhibition of bacterial growth at 0.01 ug in absence of meropenem incubated overnight by paper disk method; assay type: functional, organism-based; settings: dose 0.01 µg
Escherichia coli [33] = test: Antibacterial activity against Escherichia coli KB366 expressing IMP-1 assessed as inhibition of bacterial growth at 30 ug in presence of meropenem incubated overnight by paper disk method; assay type: functional; settings: read-out: IZ
Escherichia coli [34] = test: Antibacterial activity against Escherichia coli KB366 expressing IMP-1 assessed as inhibition of bacterial growth at 0.01 ug in presence of meropenem incubated overnight by paper disk method; assay type: functional; settings: dose 0.01 µg
Pseudomonas aeruginosa [35] = test: Antibacterial activity against Pseudomonas aeruginosa KB367 expressing IMP-1 assessed as inhibition of bacterial growth at 0.03 ug in absence of meropenem incubated overnight by paper disk method; assay type: functional, organism-based; settings: dose 0.03 µg
Pseudomonas aeruginosa [36] = test: Antibacterial activity against Pseudomonas aeruginosa KB367 expressing IMP-1 assessed as inhibition of bacterial growth at 0.01 ug in presence of meropenem incubated overnight by paper disk method; assay type: functional, organism-based; settings: dose 0.01 µg
Pseudomonas aeruginosa [37] = test: Antibacterial activity against Pseudomonas aeruginosa KB367 expressing IMP-1 assessed as inhibition of bacterial growth at 1 ug in absence of meropenem incubated overnight by paper disk method; assay type: functional, organism-based; settings: dose 1.0 µg

Row | IC50 [16] [µg/mL] | SMILES | inhibition zone (IZ) (Escherichia coli [1]) | zone of inhibition at 0.3 µg/disc (Escherichia coli [2]) [mm] | inhibition zone (IZ) (Pseudomonas aeruginosa [3]) | inhibition zone (IZ) (Escherichia coli [4]) | zone of inhibition at 100 µg/disc (Escherichia coli [5]) [mm] | zone of inhibition at 10 µg/disc (Pseudomonas aeruginosa [6]) [mm] | inhibition zone (IZ) (Escherichia coli [7]) | inhibition zone (IZ) (Pseudomonas aeruginosa [8]) | zone of inhibition at 0.1 µg/disc (Escherichia coli [9]) [mm] | inhibition zone (IZ) (Pseudomonas aeruginosa [10]) | zone of inhibition at 0.03 µg/disc (Escherichia coli [11]) [mm] | inhibition zone (IZ) (Escherichia coli [12]) | zone of inhibition at 30 µg/disc (Pseudomonas aeruginosa [13]) [mm] | inhibition zone (IZ) (Pseudomonas aeruginosa [14]) | zone of inhibition at 3 µg/disc (Escherichia coli [15]) [mm] | inhibition zone (IZ) (Pseudomonas aeruginosa [17]) | inhibition zone (IZ) (Pseudomonas aeruginosa [18]) | zone of inhibition at 3 µg/disc (Pseudomonas aeruginosa [19]) [mm] | inhibition zone (IZ) (Pseudomonas aeruginosa [20]) | other results
1 | 2.2 | CC/C=C/C(C(=O)[O-])=C(\CCC)C(=O)[O-].[Na+].[Na+] | inactive | 16 | inactive | inactive | 30 | 14 | inactive | inactive | 13 | inactive | 11 | inactive | 19 | inactive | 21 | inactive | inactive | 7 | inactive | zone of inhibition at 1 µg/disc (Escherichia coli [21]): 19 mm; inhibition zone (IZ) (Pseudomonas aeruginosa [22]): inactive; inhibition zone (IZ) (Escherichia coli [23]): inactive; inhibition zone (IZ) (Escherichia coli [24]): inactive; inhibition zone (IZ) (Escherichia coli [25]): inactive; zone of inhibition at 10 µg/disc (Escherichia coli [26]): 26 mm; inhibition zone (IZ) (Pseudomonas aeruginosa [27]; dose 1.0 µg): inactive; inhibition zone (IZ) (Pseudomonas aeruginosa [28]): inactive; inhibition zone (IZ) (Pseudomonas aeruginosa [29]): inactive; zone of inhibition at 100 µg/disc (Pseudomonas aeruginosa [30]): 23 mm; inhibition zone (IZ) (Escherichia coli [31]): inactive; inhibition zone (IZ) (Escherichia coli [32]): inactive; zone of inhibition at 30 µg/disc (Escherichia coli [33]): 28 mm; inhibition zone (IZ) (Escherichia coli [34]): inactive; inhibition zone (IZ) (Pseudomonas aeruginosa [35]): inactive; inhibition zone (IZ) (Pseudomonas aeruginosa [36]): inactive; inhibition zone (IZ) (Pseudomonas aeruginosa [37]): inactive
2 | 0.55 (≈ 1.58 µM) | CCCCC(C(=O)N1CCCCC1)=C(C(=O)O)c1ccc(O)c(O)c1 | inactive | 15 | inactive | inactive | 24 | 12 | inactive | inactive | 12 | inactive | 10 | inactive | 13 | inactive | 20 | inactive | inactive | 12 | inactive | zone of inhibition at 1 µg/disc (Escherichia coli [21]): 17 mm; inhibition zone (IZ) (Pseudomonas aeruginosa [22]): inactive; inhibition zone (IZ) (Escherichia coli [23]): inactive; inhibition zone (IZ) (Escherichia coli [24]): inactive; inhibition zone (IZ) (Escherichia coli [25]): inactive; zone of inhibition at 10 µg/disc (Escherichia coli [26]): 21 mm; zone of inhibition at 1 µg/disc (Pseudomonas aeruginosa [27]): 9 mm; inhibition zone (IZ) (Pseudomonas aeruginosa [28]): inactive; inhibition zone (IZ) (Pseudomonas aeruginosa [29]): inactive; zone of inhibition at 100 µg/disc (Pseudomonas aeruginosa [30]): 16 mm; inhibition zone (IZ) (Escherichia coli [31]): inactive; inhibition zone (IZ) (Escherichia coli [32]): inactive; zone of inhibition at 30 µg/disc (Escherichia coli [33]): 23 mm; inhibition zone (IZ) (Escherichia coli [34]): inactive; inhibition zone (IZ) (Pseudomonas aeruginosa [35]): inactive; inhibition zone (IZ) (Pseudomonas aeruginosa [36]): inactive; inhibition zone (IZ) (Pseudomonas aeruginosa [37]): inactive
3 | 0.56 | CCCC/C(C(=O)[O-])=C(/C(=O)[O-])c1ccc(O)c(O)c1.[Na+].[Na+] | inactive | 12 | inactive | inactive | 31 | 14 | inactive | inactive | 10 | inactive | 9 | inactive | 18 | inactive | 19 | inactive | inactive | 11 | inactive | zone of inhibition at 1 µg/disc (Escherichia coli [21]): 15 mm; inhibition zone (IZ) (Pseudomonas aeruginosa [22]): inactive; inhibition zone (IZ) (Escherichia coli [23]): inactive; inhibition zone (IZ) (Escherichia coli [24]): inactive; inhibition zone (IZ) (Escherichia coli [25]): inactive; zone of inhibition at 10 µg/disc (Escherichia coli [26]): 22 mm; zone of inhibition at 1 µg/disc (Pseudomonas aeruginosa [27]): 9 mm; inhibition zone (IZ) (Pseudomonas aeruginosa [28]): inactive; inhibition zone (IZ) (Pseudomonas aeruginosa [29]): inactive; zone of inhibition at 100 µg/disc (Pseudomonas aeruginosa [30]): 20 mm; inhibition zone (IZ) (Escherichia coli [31]): inactive; inhibition zone (IZ) (Escherichia coli [32]): inactive; zone of inhibition at 30 µg/disc (Escherichia coli [33]): 27 mm; inhibition zone (IZ) (Escherichia coli [34]): inactive; inhibition zone (IZ) (Pseudomonas aeruginosa [35]): inactive; inhibition zone (IZ) (Pseudomonas aeruginosa [36]): inactive; inhibition zone (IZ) (Pseudomonas aeruginosa [37]): inactive

Reference: ChEMBL document CHEMBL5236661, “A new selective inhibitor for IMP-1 metallo-β-lactamase, 3Z,5E-octa-3,5-diene-1,3,4-tricarboxylic acid-3,4-anhydride” (Bioorg Med Chem, 2023)
